Patent US9073916B2, “Prodrug forms of kinase inhibitors and their use in therapy” (AUCKLAND UNISERVICES LIMITED, priority 2009, dated 2015)
Read-outs that look alike come from different tables or passages of the source.

What was measured:
[1] = system: A431 cells; experiment: Cellular growth inhibition (sulforhodamine B); settings: for IC50: Homo sapiens
Protocol: (§3) Human A431, BT474, SKBR3, SKOV3, SW620, H1975 and HT29 carcinoma cells in log phase exponential growth in alpha minimal essential media (αMEM) containing 5% fetal bovine serum (FBS), were harvested by trypsinisation (1× trypsin/EDTA, Gibco Brl), counted, and seeded into 96 well plates (Nunc) at cell densities ranging from 800-1500 cells/well. Half of the cell samples were seeded into plates that were pre-equilibrated and held in an anoxic environment (90% N2, 5% H2, 5% CO2, 37° Q Anaerobic chamber, Coy Laboratory Products). […] At the end of this period the anoxic plates were recovered from the anaerobic camber and held under normoxia in a standard CO2 incubator (37° C.) for 20 hours. All plates were washed free of compound and cells were allowed to proliferate for a further 4 days in αMEM containing 5% FBS+antibiotics. Cells were fixed in trichloroacteic acid (30 min), washed and stained with sulforhodamine B (SRB, 60 min) prior to washing in acidified water. SRB was solubilised and absorption read at 450 nm to calculate cell densities. Inhibition of proliferation was calculated relative to untreated control wells.
(§4) Human A431, H1975 and SKOV3 carcinoma cells in log phase exponential growth in alpha minimal essential media (αMEM) containing 5% fetal bovine serum (FBS), were harvested by trypsinisation (1× trypsin/EDTA, Gibco Brl), counted, and seeded into 96 well plates (Nunc) at cell densities ranging from 800-1500 cells/well. Half of the cell samples were seeded into plates that were pre-equilibrated and held in an anoxic environment (90% N2, 5% H2, 5% CO2, 37° C.; Anaerobic chamber, Coy Laboratory Products). […] At the end of this period the anoxic plates were recovered from the anaerobic camber and held under normoxia in a standard CO2 incubator (37° C.) for 20 hours. All plates were washed free of compound and cells were allowed to proliferate for a further 4 days in αMEM containing 5% FBS+antibiotics. Cells were fixed in trichloroacteic acid (30 min), washed and stained with sulforhodamine B (SRB, 60 min) prior to washing in acidified water. SRB was solubilised and absorption read at 450 nm to calculate cell densities. Inhibition of proliferation was calculated relative to untreated control wells.

[2] = system: SKBR3 cells; experiment: Cellular growth inhibition (sulforhodamine B); format: cell-based, Human; settings: Table 3; for IC50: Homo sapiens, SK-BR-3
Protocol: as §3

[3] = system: SW620 cells; experiment: Cellular growth inhibition (sulforhodamine B); format: cell-based, Human; settings: Table 3; for IC50: Homo sapiens, SW-620
Protocol: as §3

[4] = molecular target: erbB2 (Homo sapiens, UniProt P04626); experiment: Isolated enzyme inhibition (Invitrogen Z′-LYTE kinase assay); format: biochemical; settings: 10 μM ATP, duplicate
Protocol: (§1) The compounds of Table 1 were tested for their ability to inhibit erbB1, erbB1^T790M, erbB2 and erbB4 in an isolated enzyme assay. This assay utilises synthetic FRET-capable peptide substrates. Phosphorylation of these substrates protects them from cleavage by a development reagent, leaving their FRET-capabilities intact. […] As a further consideration, for compounds capable of irreversible inhibition of an enzyme, the IC50 reflects both reversible and irreversible binding to the enzyme.

[5] = molecular target: erbB4 (Homo sapiens, UniProt Q15303); experiment: as above; format: biochemical; settings: 10 μM ATP, duplicate
Protocol: as §1

[6] = molecular target: erbB1 (Homo sapiens, UniProt P00533); experiment: Inhibition of erbB1 autophosphorylation in EGF-stimulated intact A431 cells (Western blot)
[7] = Pulse radiolysis (E(1) and fragmentation rate); format: physicochemical; settings: for kfrag. (fragmentation rate constant upon 1-electron reduction): benzyl-type radical formation; for E (1)/V (one-electron reduction potential): determined against methylviologen
Protocol: (§2) Pulse radiolysis was used to monitor the 1-electron reduction and stability of the compounds in real time. A linear accelerator delivering short pulses of high energy electrons (2-3 Gy in 200 ns of 4 MeV) equipped with a fast spectophotometric detection system was used. (Anderson et al, J. Phys. Chem. A, 101, 9704-9709, 1997). […] The rate of fragmentation was determined by analysing kinetic transients at wavelengths corresponding to the formation of the benzyl-type radical of the trigger moiety. (Bays et al, J. Am. Chem. Soc., 105, 320-324, 1983; Anderson et al, J. Phys. Chem. A, 101, 9704-9709, 1997).
The pulse radiolysis method, for example, measures the equilibrium constant between the radical anions of the prodrugs, formed upon their 1-electron reduction, and reference standards such as viologen and quinone compounds, from which data the E(1) values of the compounds can be calculated. (Meisel and Czapski. J. Phys. Chem., 1975, 79, 1503-1509.) The E(1) values of prodrugs 17-22, 140-145 were measured by the pulse radiolysis method and determined to range between −0.493V and −0.388V (Table 4).
The rate constants for fragmentation, kfrag, of the 1-electron reduced prodrugs can be measured using pulse radiolysis to observe the time-resolved formation of the absorption spectrum of the benzyl-type radical produced upon fragmentation of the radical anion. (Anderson et al, J. Phys. Chem. A, 1997, 101, 9704-9709.) The kfrag values of prodrugs 19, 20, 140, 141 and 143-145 were measured by pulse radiolysis and are presented in Table 4.
as §2, with “one-electron” for “1-electron”, “prodrug 42” for “the compounds”, “used.” for “used. (Anderson et al, J. Phys. Chem. A, 101, 9704-9709, 1997).”, “1997.)” for “1997).”

[8] = Chemical stability by HPLC; settings: HPLC after 24 h at 37° C.
[9] = system: SKOV3 cells; experiment: Cellular growth inhibition (sulforhodamine B); format: cell-based, Human; settings: Table 9; for IC50: Homo sapiens, SK-OV-3
Protocol: as §4

[10] = system: H1975 xenografts; experiment: In vivo efficacy in H1975 xenografts; set-up: species or system mice; settings: H1975 xenografts, q3dx4 at respective MTD, IP
Protocol: Specific pathogen-free homozygous female NIH-III nude mice (Charles River Laboratories, Wilmington, Mass.) were inoculated subcutaneously with a single cell suspension of H1975 cells (5×10^6 cells/100 μL; right flank). When H1975 tumour xenografts were established (typically 8-12 days) mice were randomized to treatment groups. All compounds were prepared in lactate buffer (pH4). Mice were dosed by intraperitoneal injection (0.01-0.03 ml/g) using the stated schedules and dose levels. For growth delay experiments mice were randomized to treatment and tumor volume [π(length×width^2)/6] and body weight were measured daily following treatment. […] Differences in RTV^4 were tested for statistical difference by Mann Whitney U test using SigmaStat v3.5.

[11] = system: H1975 cells; experiment: Cellular growth inhibition (sulforhodamine B); format: cell-based, Human; settings: for IC50: Homo sapiens, NCI-H1975
[12] = physchem
[13] = system: HT29 cells; experiment: Cellular growth inhibition (sulforhodamine B); format: cell-based, Human; settings: Table 7; for IC50: Homo sapiens, HT-29
Protocol: as §3

[14] = Steady state radiolytic reduction by the CO2.− radical with HPLC-MS; format: physicochemical; settings: for Detection of MNA (methyl nitroaromatic) / release of effector following 1-electron reduction: HPLC-MS; for % Loss of prodrug: HPLC-MS at 0.95 reducing equivalents; for release of effector following 1-electron reduction: steady state radiolysis
[15] = A-431, 24 h, read-out: Cellular Growth Inhibition IC50 A431 Oxic
[16] = A-431, read-out: Cellular Growth Inhibition IC50 A431 Anoxic
[17] = 24 hour exposure entirely oxic, read-out: Cellular Growth Inhibition IC50 SKBR3 Oxic
[18] = first 4 hours anoxic, read-out: Cellular Growth Inhibition IC50 SKBR3 Anoxic
[19] = 24 hour exposure entirely oxic, read-out: Cellular Growth Inhibition IC50 SW620 Oxic
[20] = first 4 hours anoxic, read-out: Cellular Growth Inhibition IC50 SW620 Anoxic
[21] = 24 hour exposure oxic, read-out: Cellular Growth Inhibition IC50 SKOV3 Oxic
[22] = first 4 hours anoxic, read-out: Cellular Growth Inhibition IC50 SKOV3 Anoxic
[23] = A-431, 4 h, read-out: Cellular Growth Inhibition IC50 A431 Anoxic
[24] = Table 9, 24 hour exposure oxic, read-out: Cellular Growth Inhibition IC50 H1975 Oxic
[25] = Table 9, first 4 hours anoxic, read-out: Cellular Growth Inhibition IC50 H1975 Anoxic
[26] = 24 hour exposure oxic, read-out: Cellular Growth Inhibition IC50 HT29 Oxic
[27] = initial 4 hours anoxic, read-out: Cellular Growth Inhibition IC50 HT29 Anoxic
[28] = Table 7, 24 hour exposure oxic, read-out: Cellular Growth Inhibition IC50 H1975 Oxic
[29] = Table 7, initial 4 hours anoxic, read-out: Cellular Growth Inhibition IC50 H1975 Anoxic

erbB1, sequence (P00533 25-1210): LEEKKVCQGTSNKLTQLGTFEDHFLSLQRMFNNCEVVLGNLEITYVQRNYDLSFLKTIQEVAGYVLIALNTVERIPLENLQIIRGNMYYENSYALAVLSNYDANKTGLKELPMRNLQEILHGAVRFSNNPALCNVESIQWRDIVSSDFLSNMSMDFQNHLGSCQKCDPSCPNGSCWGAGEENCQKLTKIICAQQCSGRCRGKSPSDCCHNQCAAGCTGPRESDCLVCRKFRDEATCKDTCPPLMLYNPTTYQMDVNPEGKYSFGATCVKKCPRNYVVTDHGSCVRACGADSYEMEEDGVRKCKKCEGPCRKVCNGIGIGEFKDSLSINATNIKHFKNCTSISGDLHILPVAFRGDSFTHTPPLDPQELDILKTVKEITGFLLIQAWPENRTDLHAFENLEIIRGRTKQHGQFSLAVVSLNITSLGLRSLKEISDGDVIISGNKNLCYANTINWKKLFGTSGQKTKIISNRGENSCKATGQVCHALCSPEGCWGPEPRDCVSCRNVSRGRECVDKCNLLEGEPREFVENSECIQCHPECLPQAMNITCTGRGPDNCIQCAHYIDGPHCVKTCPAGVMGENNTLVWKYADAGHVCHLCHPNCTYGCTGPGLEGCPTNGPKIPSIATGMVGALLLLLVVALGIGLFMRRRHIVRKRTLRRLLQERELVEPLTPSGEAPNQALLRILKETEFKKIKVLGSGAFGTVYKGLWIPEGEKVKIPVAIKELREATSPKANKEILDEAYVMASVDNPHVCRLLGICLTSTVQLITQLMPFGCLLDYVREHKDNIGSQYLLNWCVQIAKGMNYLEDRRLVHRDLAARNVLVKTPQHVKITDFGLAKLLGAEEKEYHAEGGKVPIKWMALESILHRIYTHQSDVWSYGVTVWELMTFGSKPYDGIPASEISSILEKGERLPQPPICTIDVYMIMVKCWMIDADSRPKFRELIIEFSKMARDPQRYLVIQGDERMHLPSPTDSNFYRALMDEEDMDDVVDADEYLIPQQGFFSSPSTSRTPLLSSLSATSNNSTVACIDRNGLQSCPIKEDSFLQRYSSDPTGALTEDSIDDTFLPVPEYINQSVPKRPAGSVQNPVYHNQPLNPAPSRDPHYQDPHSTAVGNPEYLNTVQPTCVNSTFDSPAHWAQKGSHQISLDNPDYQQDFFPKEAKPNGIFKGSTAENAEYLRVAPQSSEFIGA
erbB2, sequence (P04626 23-1255): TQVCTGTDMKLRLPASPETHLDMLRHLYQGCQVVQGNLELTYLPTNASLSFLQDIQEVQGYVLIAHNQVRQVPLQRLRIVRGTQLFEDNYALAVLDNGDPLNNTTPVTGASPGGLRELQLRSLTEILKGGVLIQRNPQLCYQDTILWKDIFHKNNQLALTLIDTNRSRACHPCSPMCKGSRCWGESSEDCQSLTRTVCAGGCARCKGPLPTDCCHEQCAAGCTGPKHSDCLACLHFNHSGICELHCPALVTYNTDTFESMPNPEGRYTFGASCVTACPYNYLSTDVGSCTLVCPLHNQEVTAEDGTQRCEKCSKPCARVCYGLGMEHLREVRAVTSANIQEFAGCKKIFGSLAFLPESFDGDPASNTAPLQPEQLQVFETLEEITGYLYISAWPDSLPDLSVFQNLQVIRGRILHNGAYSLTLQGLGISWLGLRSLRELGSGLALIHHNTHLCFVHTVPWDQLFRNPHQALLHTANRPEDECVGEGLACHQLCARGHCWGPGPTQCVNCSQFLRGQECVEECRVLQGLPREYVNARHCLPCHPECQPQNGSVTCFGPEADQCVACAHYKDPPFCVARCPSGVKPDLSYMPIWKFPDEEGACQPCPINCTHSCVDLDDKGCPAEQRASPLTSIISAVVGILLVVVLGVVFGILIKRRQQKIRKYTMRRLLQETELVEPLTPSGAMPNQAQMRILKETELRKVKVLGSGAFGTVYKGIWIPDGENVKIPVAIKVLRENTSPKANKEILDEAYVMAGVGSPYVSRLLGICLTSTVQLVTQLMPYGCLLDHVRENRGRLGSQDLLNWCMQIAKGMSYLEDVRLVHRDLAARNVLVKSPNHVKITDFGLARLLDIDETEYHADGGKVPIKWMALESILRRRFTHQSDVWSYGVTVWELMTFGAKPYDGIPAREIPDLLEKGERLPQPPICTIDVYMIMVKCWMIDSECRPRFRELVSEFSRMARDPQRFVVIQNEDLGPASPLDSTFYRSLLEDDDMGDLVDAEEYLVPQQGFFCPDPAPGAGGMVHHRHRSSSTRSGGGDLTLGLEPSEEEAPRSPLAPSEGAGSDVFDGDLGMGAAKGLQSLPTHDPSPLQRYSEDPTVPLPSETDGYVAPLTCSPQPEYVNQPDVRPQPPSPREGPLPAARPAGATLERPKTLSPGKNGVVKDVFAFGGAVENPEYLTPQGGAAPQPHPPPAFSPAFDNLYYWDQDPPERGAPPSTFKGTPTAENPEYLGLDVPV
erbB4, sequence (Q15303 26-1308): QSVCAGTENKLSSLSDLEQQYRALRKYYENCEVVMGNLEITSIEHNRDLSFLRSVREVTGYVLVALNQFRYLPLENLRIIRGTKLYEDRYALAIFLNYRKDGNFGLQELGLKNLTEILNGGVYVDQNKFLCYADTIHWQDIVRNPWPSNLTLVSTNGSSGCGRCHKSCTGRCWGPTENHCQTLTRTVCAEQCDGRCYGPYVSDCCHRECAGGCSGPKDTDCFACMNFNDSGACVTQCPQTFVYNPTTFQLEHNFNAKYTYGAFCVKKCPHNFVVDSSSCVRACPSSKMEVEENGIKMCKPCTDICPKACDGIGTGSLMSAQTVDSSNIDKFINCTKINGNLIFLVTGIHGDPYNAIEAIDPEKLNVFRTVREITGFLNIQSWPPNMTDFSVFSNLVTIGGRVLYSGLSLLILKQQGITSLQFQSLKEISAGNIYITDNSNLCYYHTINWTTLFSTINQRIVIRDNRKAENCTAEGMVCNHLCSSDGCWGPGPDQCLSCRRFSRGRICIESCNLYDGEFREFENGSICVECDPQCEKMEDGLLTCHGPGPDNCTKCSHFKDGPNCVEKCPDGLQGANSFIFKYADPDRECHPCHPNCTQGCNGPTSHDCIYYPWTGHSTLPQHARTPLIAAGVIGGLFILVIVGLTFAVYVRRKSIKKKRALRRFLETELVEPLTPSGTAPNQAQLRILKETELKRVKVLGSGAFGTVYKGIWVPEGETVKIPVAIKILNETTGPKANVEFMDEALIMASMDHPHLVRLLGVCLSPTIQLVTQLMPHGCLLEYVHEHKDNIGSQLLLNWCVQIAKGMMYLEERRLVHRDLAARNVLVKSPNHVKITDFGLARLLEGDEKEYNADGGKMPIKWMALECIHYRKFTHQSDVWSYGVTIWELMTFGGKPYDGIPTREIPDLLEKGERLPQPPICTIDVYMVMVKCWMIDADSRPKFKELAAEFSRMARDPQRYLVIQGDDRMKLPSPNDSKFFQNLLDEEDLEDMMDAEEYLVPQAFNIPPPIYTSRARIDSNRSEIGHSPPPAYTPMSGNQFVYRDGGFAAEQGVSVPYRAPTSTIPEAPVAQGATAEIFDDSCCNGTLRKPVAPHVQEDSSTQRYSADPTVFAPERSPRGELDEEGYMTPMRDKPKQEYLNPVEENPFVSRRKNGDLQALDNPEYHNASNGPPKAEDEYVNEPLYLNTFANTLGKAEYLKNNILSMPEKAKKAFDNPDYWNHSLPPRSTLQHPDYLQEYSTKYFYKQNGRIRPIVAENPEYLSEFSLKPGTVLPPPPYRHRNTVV

In the case of `COc1cc2ncnc(Nc3ccc(F)c(Cl)c3)c2cc1NC(=O)/C=C/CN(C)C` [Compound 14, (2E)-N-[4-(3-chloro-4-fluoroanilino)-7-methoxy-6-quinazolinyl]-4-(dimethylamino)-2-butenamide], the IC50 [1, 15] is reported as 15 nM, the IC50 [1, 16] is reported as 9 nM and the “A431 HCR (Hypoxic Cytotoxicity Ratio)” value ([1]; Table 3) is reported as 1.7 fold. For the same compound, the IC50 [2, 17] was 28 nM, the IC50 [2, 18] was 27 nM and the “SKBR3 HCR” value [2] was 1.1 fold. It also gave a melting point of 179 to 181 °C, an IC50 [3, 19] of 2020 nM and an IC50 [3, 20] of 2460 nM. For the same compound, the “SW620 HCR” value [3] was 0.8 fold.
In the case of `CN(C)CCCC(=O)Nc1ccc2ncnc(Nc3cccc(Br)c3)c2c1` [Compound 16, N-[4-(3-bromoanilino)-6-quinazolinyl]-4-(dimethylamino)butanamide], the IC50 [4] is reported as 74 nM, the IC50 [5] is reported as 113 nM and the IC50 [1, 15] is reported as 1260 nM. For the same compound, the IC50 [1, 16] was 1300 nM, the IC50 [2, 17] was 3190 nM and the IC50 [2, 18] was 5510 nM. The “SKBR3 HCR” value [2] was 0.6 fold, the melting point was 180 to 182 °C and the IC50 [3, 19] was 18600 nM. The IC50 [3, 20] was 19600 nM and the “SW620 HCR” value [3] was 0.9 fold.
For `Cn1cnc([N+](=O)[O-])c1C[N+]1(C/C=C/C(=O)Nc2ccc3ncnc(Nc4cccc(Br)c4)c3c2)CCCCC1.[Br-]` [Compound 23, 1-((2E)-4-{[4-(3-bromoanilino)-6-quinazolinyl]amino}-4-oxo-2-butenyl)-1-[(1-methyl-4-nitro-1H-imidazol-5-yl)methyl]piperidinium bromide], the IC50 [6] was 1200 nM, the “Deact. (fold reduction in cellular erbB1 inhibition relative to the parent kinase inhibitor)” value ([6]; Table 2, A431 cells) was 27 fold and the “kfrag. (fragmentation rate constant upon 1-electron reduction)” value [7] was 420 ± 60 s⁻¹. For the same compound, the “E (1)/V (one-electron reduction potential)” value [7] was −0.427 V, the IC50 [1, 15] was 670 nM and the IC50 [1, 16] was 25 nM. For the same compound, the “A431 Deact. (fold reduction in oxic growth inhibition relative to parent kinase inhibitor)” value ([1]; Table 3) was 65 fold, the “A431 HCR (Hypoxic Cytotoxicity Ratio)” value ([1]; Table 3) was 26.9 fold and the IC50 [2, 17] was 2470 nM. For the same compound, the IC50 [2, 18] was 68 nM, the “SKBR3 Deact.” value [2] was 56 fold and the “SKBR3 HCR” value [2] was 36.1 fold. For the same compound, the melting point was 188 °C (dec.), the IC50 [3, 19] was 101000 nM and the IC50 [3, 20] was 13800 nM. For the same compound, the “SW620 Deact.” value [3] was 27 fold and the “SW620 HCR” value [3] was 7.3 fold.
In the case of `Cn1cnc([N+](=O)[O-])c1C[N+](C)(C)C/C=C/C(=O)Nc1cc2c(Nc3ccc(F)c(C(F)(F)F)c3)ncnc2cn1` [Compound 50, (2E)-4-({4-[4-fluoro-3-(trifluoromethyl)anilino]pyrido[3,4-d]pyrimidin-6-yl}amino)-N,N-dimethyl-N-[(1-methyl-4-nitro-1H-imidazol-5-yl)methyl]-4-oxo-2-buten-1-ammonium bromide], the “Stability PBS (percentage parent remaining)” value [8] is reported as 88%, the “Stability Water (percentage parent remaining)” value [8] is reported as 99% and the “Stability α-MEM + FCS (5%) (percentage parent remaining)” value [8] is reported as 64%. For the same compound, the IC50 [9, 21] was 125000 nM, the IC50 [9, 22] was 4780 nM and the “SKOV3 Deact.” value [9] was 126 fold. The “SKOV3 HCR” value [9] was 28.7 fold, the IC50 [6] was 969 nM and the “Deact. erbB1 (fold reduction in cellular inhibition relative to the parent kinase inhibitor)” value ([6]; Table 8, A431 cells) was 121 fold. For the same compound, the “tumour growth inhibition (TGI)” value [10] was 114%, the IC50 [1, 23] was 250 nM and the IC50 [1, 15] was 15300 nM. The “A431 Deact.” value ([1]; Table 9) was 64 fold, the “A431 HCR” value ([1]; Table 9) was 65.8 fold and the IC50 [11, 24] was 120000 nM. The IC50 [11, 25] was 3780 nM, the “H1975 Deact.” value ([11]; Table 9) was 70 fold and the “H1975 HCR” value ([11]; Table 9) was 43.5 fold. For the same compound, the solubility ([12]; aqueous buffer) was 72 µM and the solubility ([12]; water) was over 1300 µM.
For `Cn1cnc([N+](=O)[O-])c1C[n+]1ccc(Nc2ncc3cc(-c4c(Cl)cccc4Cl)c(=O)n(C)c3n2)cc1.[Br-]` [Compound 142, 4-{[6-(2,6-dichlorophenyl)-8-methyl-7-oxo-7,8-dihydropyrido[2,3-d]pyrimidin-2-yl]amino}-1-[(1-methyl-4-nitro-1H-imidazol-5-yl)methyl]pyridinium bromide], the “E (1)/V (one-electron reduction potential)” value [7] was −0.471 V, the IC50 [13, 26] was 154000 nM and the IC50 [13, 27] was 119000 nM. The “HT29 HCR” value [13] was 1 fold, the “Detection of MNA (methyl nitroaromatic)” value [14] was “No” and the “% Loss of prodrug” value [14] was 8%. The “release of effector following 1-electron reduction” value [14] was “did not release their respective effector compounds”, the IC50 [1, 23] was over 100000 nM and the IC50 [1, 15] was 555000 nM. For the same compound, the “A431 HCR” value ([1]; Table 7) was under 6 fold, the IC50 [11, 28] was 216000 nM and the IC50 [11, 29] was over 100000 nM. The “H1975 HCR” value ([11]; Table 7) was under 3 fold and the melting point was 252 °C (dec.).
In the case of `Cn1cnc([N+](=O)[O-])c1C[N+]1(CCOc2ccc(Nc3ncc4cc(-c5c(Cl)cccc5Cl)c(=O)n(C)c4n3)cc2)CCCCC1.[Br-]` [Compound 143, 1-[2-(4-{[6-(2,6-dichlorophenyl)-8-methyl-7-oxo-7,8-dihydropyrido[2,3-d]pyrimidin-2-yl]amino}phenoxy)ethyl]-1-[(1-methyl-4-nitro-1H-imidazol-5-yl)methyl]piperidinium bromide], the “kfrag. (fragmentation rate constant upon 1-electron reduction)” value [7] is reported as 170 ± 20 s⁻¹, the “E (1)/V (one-electron reduction potential)” value [7] is reported as −0.465 V and the IC50 [13, 26] is reported as 7800 nM. For the same compound, the IC50 [13, 27] was 1500 nM, the “HT29 HCR” value [13] was 5 fold and the “Detection of MNA (methyl nitroaromatic)” value [14] was “Yes”. The “% Loss of prodrug” value [14] was 69%, the “release of effector following 1-electron reduction” value [14] was “released their respective effector compounds” and the IC50 [1, 23] was 1000 nM. For the same compound, the IC50 [1, 15] was 42800 nM, the “A431 HCR” value ([1]; Table 7) was 43 fold and the IC50 [11, 28] was 17900 nM. The IC50 [11, 29] was 2000 nM, the “H1975 HCR” value ([11]; Table 7) was 9 fold and the melting point was 176 to 178 °C.
With `C#Cc1cccc(Nc2ncnc3cnc(NC(=O)/C=C/CN(C)C)cc23)c1` [Compound 171, (2E)-4-(dimethylamino)-N-[4-(3-ethynylanilino)pyrido[3,4-d]pyrimidin-6-yl]-2-butenamide] the IC50 [9, 21] was 550 nM, the IC50 [9, 22] was 740 nM and the “SKOV3 HCR” value [9] was 0.8 fold. It also gave an IC50 [6] of 8 nM, an IC50 [1, 23] of 17 nM and an IC50 [1, 15] of 27 nM. The “A431 HCR” value ([1]; Table 9) was 1.7 fold, the IC50 [11, 24] was 1150 nM and the IC50 [11, 25] was 1120 nM. The “H1975 HCR” value ([11]; Table 9) was 1.1 fold and the melting point was 163 to 166 °C.
